According to article PMC3968781 (Journal of the American Chemical Society, 2014):
One block for each molecule: values may come before it.

Assays:
Assay type in all cases: biochemical
[1] = target: T1, Nitrile hydratase (PtNHase), alpha subunit (Pseudonocardia thermophila, UniProt Q7SID2+Q7SID3); experiment: X-ray crystal structures
T1 sequence (Q7SID2 2-204): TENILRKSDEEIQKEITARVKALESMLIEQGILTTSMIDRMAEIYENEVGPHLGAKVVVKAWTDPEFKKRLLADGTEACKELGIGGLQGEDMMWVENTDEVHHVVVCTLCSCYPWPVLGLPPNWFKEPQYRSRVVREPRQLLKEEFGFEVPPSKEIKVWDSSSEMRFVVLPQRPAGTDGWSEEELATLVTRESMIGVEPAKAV
T1 sequence (Q7SID3 1-233): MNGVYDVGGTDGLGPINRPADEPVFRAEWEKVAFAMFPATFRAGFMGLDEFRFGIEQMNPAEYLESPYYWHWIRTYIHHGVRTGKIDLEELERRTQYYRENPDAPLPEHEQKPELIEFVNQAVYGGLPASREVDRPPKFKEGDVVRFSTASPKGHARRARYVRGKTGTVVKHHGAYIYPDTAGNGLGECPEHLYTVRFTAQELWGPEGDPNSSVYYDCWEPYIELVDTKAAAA

[2] = target: T1, Nitrile hydratase (PtNHase), alpha subunit; experiment: X-ray co-crystal structure
[3] = target: T1, Nitrile hydratase (PtNHase), alpha subunit; experiment: spectrophotometric hydration kinetics at […] nm

Ki [1]: 500 ± 100 nM
SMILES: CCCCB(O)O [BuBA, 1-butaneboronic acid]

Ki [2]: 0.04 ± 0.01 nM
SMILES: OB(O)c1ccccc1 [PBA, phenylboronic acid]

SMILES: C=CC#N [acrylonitrile]
Km [3]: 800 ± 100 µM
